#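 All cell lines were grown in 96-well plates and treated with compound for 48 hours. TGI denotes the concentration required for complete inhibition of growth.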
# Tests used:
# Assay in all cases: NCI tumour cell line growth inhibition, 48 h
# TK-10 renal = tested on: TK-10 renal
# U251 CNS = tested on: U251 CNS
# HT29 colon = tested on: HT29 colon
# PC-3 prostate = tested on: PC-3 prostate
# HCT-15 colon = tested on: HCT-15 colon
# SF-295 CNS = tested on: SF-295 CNS
# OVCAR-5 ovarian = tested on: OVCAR-5 ovarian
# SK-MEL-5 melanoma = tested on: SK-MEL-5 melanoma
# K-562 leukemia = tested on: K-562 leukemia
# HS 578T breast = tested on: HS 578T breast
smiles,measurement,setting,value
O=S(=O)(/N=C(\NO)Nc1ccc(Cl)cc1)c1cccc2nsnc12,TGI,TK-10 renal,> 100 µM
same,TGI,U251 CNS,> 100 µM
same,TGI,HT29 colon,> 100 µM
same,TGI,PC-3 prostate,> 100 µM
same,TGI,HCT-15 colon,> 100 µM
same,TGI,SF-295 CNS,> 100 µM
same,TGI,OVCAR-5 ovarian,75.5 µM
same,TGI,SK-MEL-5 melanoma,29.5 µM
same,TGI,K-562 leukemia,> 100 µM
same,TGI,HS 578T breast,85.6 µM
COC(=O)[C@H](Cc1c[nH]c2ccccc12)NC(=O)c1ccc(CNC(=O)/C=C/c2cccc(Oc3ccccc3)c2)cc1,TGI,TK-10 renal,> 100 µM
same,TGI,U251 CNS,> 100 µM
same,TGI,HT29 colon,> 100 µM
same,TGI,PC-3 prostate,> 100 µM
same,TGI,HCT-15 colon,> 100 µM
same,TGI,SF-295 CNS,> 100 µM
same,TGI,OVCAR-5 ovarian,> 100 µM
same,TGI,SK-MEL-5 melanoma,> 100 µM
same,TGI,K-562 leukemia,> 100 µM
same,TGI,HS 578T breast,> 100 µM
C[N+]1(CCCl)CC[N+](C)(CCCl)CC1 (stereo unspecified),TGI,TK-10 renal,> 100 µM
same,TGI,U251 CNS,> 100 µM
same,TGI,HT29 colon,> 100 µM
same,TGI,PC-3 prostate,> 100 µM
same,TGI,HCT-15 colon,> 100 µM
same,TGI,SF-295 CNS,> 100 µM
same,TGI,OVCAR-5 ovarian,> 100 µM
same,TGI,SK-MEL-5 melanoma,> 100 µM
same,TGI,K-562 leukemia,> 100 µM
same,TGI,HS 578T breast,> 100 µM
Cc1csc(/N=C\c2c(O)c3ccccc3oc2=O)n1,TGI,TK-10 renal,77.8 µM
same,TGI,U251 CNS,> 100 µM
same,TGI,HT29 colon,> 100 µM
same,TGI,PC-3 prostate,> 100 µM
same,TGI,HCT-15 colon,> 100 µM
same,TGI,OVCAR-5 ovarian,> 100 µM
same,TGI,SK-MEL-5 melanoma,> 100 µM
same,TGI,K-562 leukemia,> 100 µM
same,TGI,HS 578T breast,94.5 µM
Cc1c2c(OCCN3CCCCC3)nn(C)c(=O)c2c(C)n1-c1ccccc1,TGI,TK-10 renal,> 100 µM
same,TGI,U251 CNS,> 100 µM
same,TGI,HT29 colon,> 100 µM
same,TGI,PC-3 prostate,> 100 µM
same,TGI,HCT-15 colon,> 100 µM
same,TGI,SF-295 CNS,47.9 µM
same,TGI,OVCAR-5 ovarian,> 100 µM
same,TGI,SK-MEL-5 melanoma,32.1 µM
same,TGI,K-562 leukemia,> 100 µM
same,TGI,HS 578T breast,> 100 µM
CN(C)CCCn1nc(N)c2nc3cc(Cl)ccc3nc21,TGI,TK-10 renal,> 100 µM
same,TGI,U251 CNS,> 100 µM
same,TGI,HT29 colon,> 100 µM
same,TGI,PC-3 prostate,> 100 µM
same,TGI,HCT-15 colon,> 100 µM
same,TGI,SF-295 CNS,> 100 µM
same,TGI,OVCAR-5 ovarian,> 100 µM
same,TGI,SK-MEL-5 melanoma,41.3 µM
same,TGI,K-562 leukemia,> 100 µM
same,TGI,HS 578T breast,> 100 µM
CCNC(=O)c1c(O)c2ccccc2[nH]c1=O,TGI,TK-10 renal,> 100 µM
same,TGI,U251 CNS,> 100 µM
same,TGI,HT29 colon,> 100 µM
same,TGI,PC-3 prostate,> 100 µM
same,TGI,HCT-15 colon,> 100 µM
same,TGI,SF-295 CNS,> 100 µM
same,TGI,OVCAR-5 ovarian,> 100 µM
same,TGI,SK-MEL-5 melanoma,> 100 µM
same,TGI,K-562 leukemia,> 100 µM
same,TGI,HS 578T breast,> 100 µM
CCN(CC)CCNC(=O)c1cn2c(ccc3sc4ccccc4c(=O)c32)n1,TGI,TK-10 renal,19.1 µM
same,TGI,U251 CNS,> 51.6 µM
same,TGI,HT29 colon,20.4 µM
same,TGI,PC-3 prostate,23.4 µM
same,TGI,HCT-15 colon,21.2 µM
same,TGI,SF-295 CNS,23.9 µM
same,TGI,OVCAR-5 ovarian,21.7 µM
same,TGI,SK-MEL-5 melanoma,22.9 µM
same,TGI,K-562 leukemia,36.8 µM
same,TGI,HS 578T breast,34.6 µM
C=C1C(=O)O[C@@H]2C[C@]3(C)CC[C@]4(C)[C@H](CC[C@@H]5[C@@]6(C)CCC(=O)C(C)(C)[C@@H]6CC[C@]54C)[C@H]3[C@H]12,TGI,TK-10 renal,30.3 µM
same,TGI,U251 CNS,38.4 µM
same,TGI,HT29 colon,> 56.7 µM
same,TGI,PC-3 prostate,35.4 µM
same,TGI,HCT-15 colon,28.1 µM
same,TGI,SF-295 CNS,33.6 µM
same,TGI,OVCAR-5 ovarian,32.8 µM
same,TGI,SK-MEL-5 melanoma,25.1 µM
same,TGI,K-562 leukemia,16.7 µM
same,TGI,HS 578T breast,> 78 µM
CCOP(=O)(OCC)C(C#N)Cc1ccco1 (stereo unspecified),TGI,TK-10 renal,> 10 µM
same,TGI,U251 CNS,> 10 µM
same,TGI,HT29 colon,> 10 µM
same,TGI,PC-3 prostate,> 10 µM
same,TGI,HCT-15 colon,> 10 µM
same,TGI,SF-295 CNS,> 10 µM
same,TGI,OVCAR-5 ovarian,> 10 µM
same,TGI,SK-MEL-5 melanoma,> 10 µM
same,TGI,K-562 leukemia,> 10 µM
same,TGI,HS 578T breast,> 10 µM
COc1ccc(C2C3COc4ccccc4C3=NN2c2ccccc2)cc1 (stereo unspecified),TGI,TK-10 renal,> 100 µM
same,TGI,U251 CNS,> 100 µM
same,TGI,HT29 colon,> 100 µM
same,TGI,PC-3 prostate,> 100 µM
same,TGI,HCT-15 colon,> 100 µM
same,TGI,SF-295 CNS,> 100 µM
same,TGI,OVCAR-5 ovarian,> 100 µM
same,TGI,SK-MEL-5 melanoma,> 100 µM
same,TGI,K-562 leukemia,> 100 µM
same,TGI,HS 578T breast,> 100 µM
C=C1C(=O)O[C@@H]2C=C(C)C3=CC(=O)[C@](C)(C[C@H](OC(=O)/C(C)=C\C)[C@@H]12)O3,TGI,TK-10 renal,2.19 µM
same,TGI,U251 CNS,4.85 µM
same,TGI,HT29 colon,2.73 µM
same,TGI,PC-3 prostate,5.01 µM
same,TGI,HCT-15 colon,2.06 µM
same,TGI,SF-295 CNS,6.47 µM
same,TGI,OVCAR-5 ovarian,3.86 µM
same,TGI,SK-MEL-5 melanoma,2.03 µM
same,TGI,K-562 leukemia,2.04 µM
same,TGI,HS 578T breast,17.7 µM
O=C(Cc1ccccc1)Nn1c(-c2ccccc2)nc2ccccc2c1=O,TGI,TK-10 renal,> 100 µM
same,TGI,U251 CNS,> 100 µM
same,TGI,HT29 colon,> 100 µM
same,TGI,PC-3 prostate,> 100 µM
same,TGI,SF-295 CNS,> 100 µM
same,TGI,OVCAR-5 ovarian,> 100 µM
same,TGI,SK-MEL-5 melanoma,> 100 µM
same,TGI,K-562 leukemia,> 100 µM
same,TGI,HS 578T breast,> 100 µM
O=C(N/N=C1/C(=O)c2c3ccccc3cc3cccc1c23)c1ccccc1,TGI,TK-10 renal,78.5 µM
same,TGI,U251 CNS,98.3 µM
same,TGI,HT29 colon,> 87.9 µM
same,TGI,PC-3 prostate,> 84.1 µM
same,TGI,HCT-15 colon,> 100 µM
same,TGI,SF-295 CNS,52.2 µM
same,TGI,OVCAR-5 ovarian,> 100 µM
same,TGI,SK-MEL-5 melanoma,> 63.2 µM
same,TGI,K-562 leukemia,> 100 µM
same,TGI,HS 578T breast,> 73.2 µM
CCOC(=O)c1sc2[n+](c1C)C(=O)/C(=C/c1ccc([N+](=O)[O-])cc1)S2,TGI,TK-10 renal,50.7 µM
same,TGI,U251 CNS,40.3 µM
same,TGI,HT29 colon,41.9 µM
same,TGI,PC-3 prostate,57.4 µM
same,TGI,SF-295 CNS,64.4 µM
same,TGI,OVCAR-5 ovarian,> 100 µM
same,TGI,SK-MEL-5 melanoma,72.1 µM
same,TGI,K-562 leukemia,83.4 µM
same,TGI,HS 578T breast,67 µM
CC1(C)C2CC(=O)C1(C)C(OCc1ccccc1)C2 (stereo unspecified),TGI,TK-10 renal,> 100 µM
same,TGI,U251 CNS,> 100 µM
same,TGI,HT29 colon,> 100 µM
same,TGI,PC-3 prostate,> 100 µM
same,TGI,HCT-15 colon,> 100 µM
same,TGI,SF-295 CNS,> 100 µM
same,TGI,OVCAR-5 ovarian,> 100 µM
same,TGI,SK-MEL-5 melanoma,> 100 µM
same,TGI,K-562 leukemia,77.6 µM
same,TGI,HS 578T breast,77 µM
N#Cc1c(-c2ccccc2)[nH]c(=O)n(C2OC(CO)C(O)C(O)C2O)c1=O (stereo unspecified),TGI,TK-10 renal,> 100 µM
same,TGI,U251 CNS,> 100 µM
same,TGI,HT29 colon,> 100 µM
same,TGI,PC-3 prostate,> 100 µM
same,TGI,HCT-15 colon,> 100 µM
same,TGI,SF-295 CNS,> 100 µM
same,TGI,OVCAR-5 ovarian,> 100 µM
same,TGI,SK-MEL-5 melanoma,> 100 µM
same,TGI,K-562 leukemia,> 100 µM
same,TGI,HS 578T breast,> 100 µM
NC1=CN2c3ccccc3N(CC(=O)O)C2C=C1 (stereo unspecified),TGI,TK-10 renal,> 100 µM
same,TGI,U251 CNS,> 100 µM
same,TGI,HT29 colon,> 100 µM
same,TGI,PC-3 prostate,> 100 µM
same,TGI,HCT-15 colon,> 100 µM
same,TGI,SF-295 CNS,> 100 µM
same,TGI,OVCAR-5 ovarian,> 100 µM
same,TGI,SK-MEL-5 melanoma,> 100 µM
same,TGI,K-562 leukemia,> 100 µM
same,TGI,HS 578T breast,> 100 µM
CCCCCCCCCCCCOCCCOP(=O)([O-])OCC[N+](C)(C)C,TGI,TK-10 renal,14.9 µM
same,TGI,U251 CNS,47.7 µM
same,TGI,HT29 colon,61.7 µM
same,TGI,PC-3 prostate,9.73 µM
same,TGI,HCT-15 colon,> 73.3 µM
same,TGI,SF-295 CNS,> 100 µM
same,TGI,OVCAR-5 ovarian,> 100 µM
same,TGI,SK-MEL-5 melanoma,> 71.3 µM
same,TGI,K-562 leukemia,> 76.5 µM
same,TGI,HS 578T breast,57.7 µM
CC(C)=CCC/C(C)=C/CC/C(C)=C/CC/C(=C/CC/C(C)=C\CC/C(C)=C/CC/C(C)=C/CC/C(C)=C/Cc1cc(O)ccc1O)CO,TGI,TK-10 renal,19.5 µM
same,TGI,U251 CNS,> 28.5 µM
same,TGI,HT29 colon,18.9 µM
same,TGI,PC-3 prostate,15.5 µM
same,TGI,HCT-15 colon,39 µM
same,TGI,SF-295 CNS,5.85 µM
same,TGI,OVCAR-5 ovarian,> 91.5 µM
same,TGI,SK-MEL-5 melanoma,15.9 µM
same,TGI,K-562 leukemia,> 100 µM
same,TGI,HS 578T breast,8.44 µM
Oc1ccc(Cl)cc1CN1CCN(Cc2cc(Cl)ccc2O)C1,TGI,TK-10 renal,9.69 µM
same,TGI,U251 CNS,15 µM
same,TGI,HT29 colon,13 µM
same,TGI,PC-3 prostate,6.69 µM
same,TGI,SF-295 CNS,7.73 µM
same,TGI,OVCAR-5 ovarian,16.9 µM
same,TGI,SK-MEL-5 melanoma,2.22 µM
same,TGI,K-562 leukemia,5.86 µM
same,TGI,HS 578T breast,8.99 µM

# — PubChem BioAssay (NCI)
